According to PubChem BioAssay (NCI):
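Growth conditions: 96-well plates. Treatment: test compound, 48 hours, 5 concentrations. Analysis: linear interpolation between bracketing concentrations; unreached endpoints set to highest concentration. GI50: concentration for 50% inhibition of growth. TGI denotes the concentration required for complete inhibition of growth.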

Assays:
Assay in all cases: NCI tumour cell line growth inhibition, 48 h
[1] = test system: SF-295 CNS
[2] = test system: M14 melanoma
[3] = test system: SNB-19 CNS
[4] = test system: HL-60(TB) leukemia
[5] = test system: NCI-H226 lung
[6] = test system: EKVX NSCLC
[7] = test system: U251 CNS
[8] = test system: KM12 colon
[9] = test system: OVCAR-5 ovarian

CCOC(=O)C(=O)Nc1c(C(C)C)cccc1C(C)C
TGI [1]: > 100 µM | TGI [2]: > 100 µM | TGI [3]: > 100 µM | TGI [4]: > 100 µM | TGI [5]: > 100 µM | TGI [6]: > 100 µM | TGI [7]: > 100 µM | TGI [8]: > 100 µM

Cc1c2cc[n+](C)cc2c(C)c2c1[nH]c1ccc(O)c(OCC(F)(F)F)c12
TGI [1]: 3.76 µM | TGI [2]: 15.7 µM | TGI [3]: 5.33 µM | TGI [4]: 13 µM | TGI [5]: 4.08 µM | TGI [9]: 30.5 µM | TGI [6]: 20.1 µM | TGI [7]: 7 µM

O=[N+]([O-])c1ccc2c(c1)[O][Sn]([I])([I])[O]2
GI50 [1]: > 100 µM | TGI [1]: > 100 µM | GI50 [2]: > 100 µM | TGI [2]: > 100 µM | GI50 [3]: > 100 µM | TGI [3]: > 100 µM | GI50 [4]: > 100 µM | TGI [4]: > 100 µM | GI50 [5]: > 100 µM | TGI [5]: > 100 µM | GI50 [9]: > 100 µM | TGI [9]: > 100 µM | GI50 [6]: > 100 µM | TGI [6]: > 100 µM | GI50 [7]: > 100 µM | TGI [7]: > 100 µM | GI50 [8]: > 100 µM | TGI [8]: > 100 µM

C[C-](O)O.O/C(=C\[C-](O)c1ccccc1)c1ccccc1.O/C(=C\[C-](O)c1ccccc1)c1ccccc1.[Nd+3] (stereo not given)
GI50 [1]: 0.372 µM | TGI [1]: 19.4 µM | GI50 [2]: 14.6 µM | TGI [2]: 33.8 µM | GI50 [3]: 7.83 µM | TGI [3]: 50 µM | GI50 [4]: 2.03 µM | TGI [4]: 8.7 µM | GI50 [5]: 1.24 µM | TGI [5]: 7.93 µM | GI50 [9]: 12.6 µM | TGI [9]: 33.1 µM | GI50 [6]: 8.09 µM | TGI [6]: 55 µM | GI50 [7]: 4.46 µM | TGI [7]: 22.1 µM
